Reference: ChEMBL document CHEMBL3046161, “Synthesis of potential antitubercular and antimicrobial s-triazine-based scaffolds via Suzuki cross-coupling reaction” (2013)
Converted amounts (≈) assume the structure as drawn.

Experiments:
Format in all cases: functional
Salmonella typhi [1] = assay: Antibacterial activity against Salmonella enterica subsp. enterica serovar Typhi MTCC 733 assessed as growth inhibition at 3.12 to 50 ug/mL after 24 hr by agar disk diffusion method
Klebsiella pneumoniae [2] = assay: Antibacterial activity against Klebsiella pneumoniae MTCC 109 assessed as growth inhibition at 3.12 to 50 ug/mL after 24 hr by agar disk diffusion method
Klebsiella pneumoniae [3] = assay: Antibacterial activity against Klebsiella pneumoniae MTCC 109 assessed as growth inhibition after 24 hr by agar streak dilution method; details: MTCC 109, 24 h
Salmonella typhi [4] = assay: Antibacterial activity against Salmonella enterica subsp. enterica serovar Typhi MTCC 733 assessed as growth inhibition after 24 hr by agar streak dilution method; details: MTCC 733, 24 h
Pseudomonas aeruginosa [5] = assay: Antibacterial activity against Pseudomonas aeruginosa MTCC 741 assessed as growth inhibition after 24 hr by agar streak dilution method; details: MTCC 741, 24 h
Escherichia coli [6] = assay: Antibacterial activity against Escherichia coli MTCC 739 assessed as growth inhibition after 24 hr by agar streak dilution method; details: MTCC 739, 24 h
Bacillus cereus [7] = assay: Antibacterial activity against Bacillus cereus MTCC 430 assessed as growth inhibition after 24 hr by agar streak dilution method; details: MTCC 430, 24 h
Staphylococcus aureus [8] = assay: Antibacterial activity against Staphylococcus aureus MTCC 96 assessed as growth inhibition after 24 hr by agar streak dilution method; details: MTCC 96, 24 h
[9] = test system: Mycobacterium tuberculosis; assay: Antimycobacterial activity against Mycobacterium tuberculosis H37Rv assessed as growth inhibition at MIC after 12 to 28 days by Lowenstein and Jensen agar dilution method
[10] = test system: Mycobacterium tuberculosis; assay: Antimycobacterial activity against Mycobacterium tuberculosis H37Rv assessed as growth inhibition after 12 to 28 days by Lowenstein and Jensen agar dilution method
[11] = test system: Mycobacterium tuberculosis; assay: Antimycobacterial activity against Mycobacterium tuberculosis H37Rv assessed as growth inhibition measured within 10 days by BACTEC MGIT method; details: 240 h
Candida albicans [12] = assay: Antifungal activity against Candida albicans MTCC 183 assessed as growth inhibition at 3.12 to 50 ug/mL after 24 hr by agar disk diffusion method
Aspergillus clavatus [13] = assay: Antifungal activity against Aspergillus clavatus MTCC 1323 assessed as growth inhibition at 3.12 to 50 ug/mL after 24 hr by agar disk diffusion method
Aspergillus fumigatus [14] = assay: Antifungal activity against Aspergillus fumigatus MTCC 343 assessed as growth inhibition at 3.12 to 50 ug/mL after 24 hr by agar disk diffusion method
Aspergillus niger [15] = assay: Antifungal activity against Aspergillus niger MTCC 282 assessed as growth inhibition at 3.12 to 50 ug/mL after 24 hr by agar disk diffusion method
Candida albicans [16] = assay: Antifungal activity against Candida albicans MTCC 183 assessed as growth inhibition after 48 hr by agar streak dilution method; details: MTCC 183, 48 h
Aspergillus clavatus [17] = assay: Antifungal activity against Aspergillus clavatus MTCC 1323 assessed as growth inhibition after 48 hr by agar streak dilution method; details: MTCC 1323, 48 h
Aspergillus fumigatus [18] = assay: Antifungal activity against Aspergillus fumigatus MTCC 343 assessed as growth inhibition after 48 hr by agar streak dilution method; details: MTCC 343, 48 h
Aspergillus niger [19] = assay: Antifungal activity against Aspergillus niger MTCC 282 assessed as growth inhibition after 48 hr by agar streak dilution method; details: MTCC 282, 48 h
Shigella flexneri [20] = assay: Antibacterial activity against Shigella flexneri MTCC 1457 assessed as growth inhibition at 3.12 to 50 ug/mL after 24 hr by agar disk diffusion method
Proteus vulgaris [21] = assay: Antibacterial activity against Proteus vulgaris MTCC 1771 assessed as growth inhibition at 3.12 to 50 ug/mL after 24 hr by agar disk diffusion method
Pseudomonas aeruginosa [22] = assay: Antibacterial activity against Pseudomonas aeruginosa MTCC 741 assessed as growth inhibition at 3.12 to 50 ug/mL after 24 hr by agar disk diffusion method
Escherichia coli [23] = assay: Antibacterial activity against Escherichia coli MTCC 739 assessed as growth inhibition at 3.12 to 50 ug/mL after 24 hr by agar disk diffusion method
Bacillus cereus [24] = assay: Antibacterial activity against Bacillus cereus MTCC 430 assessed as growth inhibition at 3.12 to 50 ug/mL after 24 hr by agar disk diffusion method
Staphylococcus aureus [25] = assay: Antibacterial activity against Staphylococcus aureus MTCC 96 assessed as growth inhibition at 3.12 to 50 ug/mL after 24 hr by agar disk diffusion method
Shigella flexneri [26] = assay: Antibacterial activity against Shigella flexneri MTCC 1457 assessed as growth inhibition after 24 hr by agar streak dilution method; details: MTCC 1457, 24 h
Proteus vulgaris [27] = assay: Antibacterial activity against Proteus vulgaris MTCC 1771 assessed as growth inhibition after 24 hr by agar streak dilution method; details: MTCC 1771, 24 h

Compound	inhibition zone (IZ) (Salmonella typhi [1])	inhibition zone (IZ) (Klebsiella pneumoniae [2])	MIC (Klebsiella pneumoniae [3])	MIC (Salmonella typhi [4])	MIC (Pseudomonas aeruginosa [5])	MIC (Escherichia coli [6])	MIC (Bacillus cereus [7])	MIC (Staphylococcus aureus [8])	growth inhibition (GI) [9]	MIC [10]	MIC [11]	inhibition zone (IZ) (Candida albicans [12])	inhibition zone (IZ) (Aspergillus clavatus [13])	inhibition zone (IZ) (Aspergillus fumigatus [14])	inhibition zone (IZ) (Aspergillus niger [15])	MIC (Candida albicans [16])	MIC (Aspergillus clavatus [17])	MIC (Aspergillus fumigatus [18])	MIC (Aspergillus niger [19])	inhibition zone (IZ) (Shigella flexneri [20])	also measured
CCOc1ccc(NC(=O)CNc2ccc(-c3nc(N4CC(C)CC(C)C4)nc(N4CC(C)CC(C)C4)n3)cc2)cc1 (configuration not stated)	21 mm	<10 mm	50 µg/mL (≈ 87.4 µM)	25 µg/mL (≈ 43.7 µM)	50 µg/mL (≈ 87.4 µM)	12.5 µg/mL (≈ 21.9 µM)	50 µg/mL (≈ 87.4 µM)	25 µg/mL (≈ 43.7 µM)	98%	25 µg/mL (≈ 43.7 µM)	> 6.25 µg/mL	24 mm	14 mm	<10 mm	19 mm	25 µg/mL (≈ 43.7 µM)	50 µg/mL (≈ 87.4 µM)	> 50 µg/mL	25 µg/mL (≈ 43.7 µM)	22 mm	inhibition zone (IZ) (Proteus vulgaris [21]): 25 mm; inhibition zone (IZ) (Pseudomonas aeruginosa [22]): 16 mm; inhibition zone (IZ) (Escherichia coli [23]): 24 mm; inhibition zone (IZ) (Bacillus cereus [24]): 20 mm; inhibition zone (IZ) (Staphylococcus aureus [25]): 19 mm; MIC (Shigella flexneri [26]): 25 µg/mL (≈ 43.7 µM); MIC (Proteus vulgaris [27]): 12.5 µg/mL (≈ 21.9 µM)
CC1CC(C)CN(c2nc(-c3ccc(NCC(=O)Nc4ccc(F)cc4)cc3)nc(N3CC(C)CC(C)C3)n2)C1 (configuration not stated)	21 mm	21 mm	50 µg/mL (≈ 91.6 µM)	25 µg/mL (≈ 45.8 µM)	12.5 µg/mL (≈ 22.9 µM)	25 µg/mL (≈ 45.8 µM)	25 µg/mL (≈ 45.8 µM)	12.5 µg/mL (≈ 22.9 µM)	97%	25 µg/mL (≈ 45.8 µM)	> 6.25 µg/mL	15 mm	13 mm	22 mm	18 mm	50 µg/mL (≈ 91.6 µM)	50 µg/mL (≈ 91.6 µM)	50 µg/mL (≈ 91.6 µM)	50 µg/mL (≈ 91.6 µM)	25 mm	inhibition zone (IZ) (Proteus vulgaris [21]): 16 mm; inhibition zone (IZ) (Pseudomonas aeruginosa [22]): 27 mm; inhibition zone (IZ) (Escherichia coli [23]): 20 mm; inhibition zone (IZ) (Bacillus cereus [24]): 22 mm; inhibition zone (IZ) (Staphylococcus aureus [25]): 20 mm; MIC (Shigella flexneri [26]): 12.5 µg/mL (≈ 22.9 µM); MIC (Proteus vulgaris [27]): 50 µg/mL (≈ 91.6 µM)
CC1CC(C)CN(c2nc(-c3ccc(NCC(=O)Nc4ccc(I)cc4)cc3)nc(N3CC(C)CC(C)C3)n2)C1 (configuration not stated)	17 mm	23 mm	50 µg/mL (≈ 76.5 µM)	50 µg/mL (≈ 76.5 µM)	25 µg/mL (≈ 38.2 µM)	50 µg/mL (≈ 76.5 µM)	50 µg/mL (≈ 76.5 µM)	50 µg/mL (≈ 76.5 µM)	95%	250 µg/mL (≈ 382 µM)	> 6.25 µg/mL	<10 mm	<10 mm	16 mm	<10 mm	> 50 µg/mL	> 50 µg/mL	50 µg/mL (≈ 76.5 µM)	50 µg/mL (≈ 76.5 µM)	20 mm	inhibition zone (IZ) (Proteus vulgaris [21]): 23 mm; inhibition zone (IZ) (Pseudomonas aeruginosa [22]): 24 mm; inhibition zone (IZ) (Escherichia coli [23]): <10 mm; inhibition zone (IZ) (Bacillus cereus [24]): 16 mm; inhibition zone (IZ) (Staphylococcus aureus [25]): 17 mm; MIC (Shigella flexneri [26]): 50 µg/mL (≈ 76.5 µM); MIC (Proteus vulgaris [27]): 25 µg/mL (≈ 38.2 µM)
CC1CC(C)CN(c2nc(-c3ccc(NCC(=O)Nc4ccc([N+](=O)[O-])cc4)cc3)nc(N3CC(C)CC(C)C3)n2)C1 (configuration not stated)	15 mm	12 mm	50 µg/mL (≈ 87.3 µM)	50 µg/mL (≈ 87.3 µM)	50 µg/mL (≈ 87.3 µM)	50 µg/mL (≈ 87.3 µM)	50 µg/mL (≈ 87.3 µM)	12.5 µg/mL (≈ 21.8 µM)	94%	100 µg/mL (≈ 175 µM)	> 6.25 µg/mL	13 mm	24 mm	18 mm	18 mm	50 µg/mL (≈ 87.3 µM)	50 µg/mL (≈ 87.3 µM)	50 µg/mL (≈ 87.3 µM)	50 µg/mL (≈ 87.3 µM)	17 mm	inhibition zone (IZ) (Proteus vulgaris [21]): 13 mm; inhibition zone (IZ) (Pseudomonas aeruginosa [22]): 20 mm; inhibition zone (IZ) (Escherichia coli [23]): 13 mm; inhibition zone (IZ) (Bacillus cereus [24]): 16 mm; inhibition zone (IZ) (Staphylococcus aureus [25]): 20 mm; MIC (Shigella flexneri [26]): 50 µg/mL (≈ 87.3 µM); MIC (Proteus vulgaris [27]): 50 µg/mL (≈ 87.3 µM)
CC1CC(C)CN(c2nc(-c3ccc(NCC(=O)Nc4ccc(C#N)cc4)cc3)nc(N3CC(C)CC(C)C3)n2)C1 (configuration not stated)	20 mm	28 mm	12.5 µg/mL (≈ 22.6 µM)	50 µg/mL (≈ 90.5 µM)	50 µg/mL (≈ 90.5 µM)	25 µg/mL (≈ 45.2 µM)	50 µg/mL (≈ 90.5 µM)	12.5 µg/mL (≈ 22.6 µM)	96%	62.5 µg/mL (≈ 113 µM)	> 6.25 µg/mL	<10 mm	<10 mm	11 mm	<10 mm	> 50 µg/mL	> 50 µg/mL	50 µg/mL (≈ 90.5 µM)	50 µg/mL (≈ 90.5 µM)	15 mm	inhibition zone (IZ) (Proteus vulgaris [21]): 19 mm; inhibition zone (IZ) (Pseudomonas aeruginosa [22]): 21 mm; inhibition zone (IZ) (Escherichia coli [23]): 20 mm; inhibition zone (IZ) (Bacillus cereus [24]): 19 mm; inhibition zone (IZ) (Staphylococcus aureus [25]): 19 mm; MIC (Shigella flexneri [26]): 50 µg/mL (≈ 90.5 µM); MIC (Proteus vulgaris [27]): 50 µg/mL (≈ 90.5 µM)
Cc1ccc(NC(=O)CNc2ccc(-c3nc(N4CC(C)CC(C)C4)nc(N4CC(C)CC(C)C4)n3)cc2)cc1 (configuration not stated)	18 mm	<10 mm	50 µg/mL (≈ 92.3 µM)	50 µg/mL (≈ 92.3 µM)	50 µg/mL (≈ 92.3 µM)	50 µg/mL (≈ 92.3 µM)	50 µg/mL (≈ 92.3 µM)	50 µg/mL (≈ 92.3 µM)	95%	250 µg/mL (≈ 461 µM)	> 6.25 µg/mL	11 mm	<10 mm	<10 mm	<10 mm	50 µg/mL (≈ 92.3 µM)	> 50 µg/mL	> 50 µg/mL	50 µg/mL (≈ 92.3 µM)	11 mm	inhibition zone (IZ) (Proteus vulgaris [21]): 16 mm; inhibition zone (IZ) (Pseudomonas aeruginosa [22]): 17 mm; inhibition zone (IZ) (Escherichia coli [23]): 13 mm; inhibition zone (IZ) (Bacillus cereus [24]): 14 mm; inhibition zone (IZ) (Staphylococcus aureus [25]): <10 mm; MIC (Shigella flexneri [26]): 50 µg/mL (≈ 92.3 µM); MIC (Proteus vulgaris [27]): 50 µg/mL (≈ 92.3 µM)
